According to ChEMBL document CHEMBL4765389, “Antimicrobial and anti-inflammatory activities of short dodecapeptides derived from duck cathelicidin: Plausible mechanism of bactericidal action and endotoxin neutralization” (Eur J Med Chem, 2020):
Calls of active or inactive are those of the source. No cut-off for these calls is given here.

Tests used:
Erythrocyte = assay: Hemolytic activity in sheep RBC assessed as reduction in hemoglobin at 256 uM incubated for 1 hr; assay type: ADME, cell-based, Ovis aries
[1] = Cytotoxicity against mouse RAW264.7 cells assessed as reduction in cell viability at 20 uM incubated for 24 hrs by MTT assay; assay type: cell-based; details: read-out: INH
Staphylococcus aureus [2] = assay: Antibacterial activity against Staphylococcus aureus KCTC 1621 assessed as reduction in bacterial growth incubated for 24 hrs by CLSI based broth dilution method; assay type: functional; details: read-out: MIC100
Staphylococcus aureus [3] = assay: Antibacterial activity against methicillin-resistant Staphylococcus aureus CCARM 3089 assessed as reduction in bacterial growth incubated for 24 hrs by CLSI based broth dilution method; assay type: functional; details: read-out: MIC100
Enterococcus faecium = assay: Antibacterial activity against vancomycin-resistant Enterococcus faecium ATCC 51559 assessed as reduction in bacterial growth incubated for 24 hrs by CLSI based broth dilution method; assay type: functional; details: read-out: MIC100
Pseudomonas aeruginosa = assay: Antibacterial activity against Pseudomonas aeruginosa KCTC 1637 assessed as reduction in bacterial growth incubated for 24 hrs by CLSI based broth dilution method; assay type: functional; details: read-out: MIC100
Candida albicans = assay: Antifungal activity against Candida albicans KCTC 7121 assessed as reduction in fungal growth incubated for 24 hrs by CLSI based broth dilution method; assay type: functional; details: read-out: MIC100
Bacteria [4] = assay: Antibacterial activity against Gram positive bacteria assessed as reduction in bacterial growth incubated for 24 hrs by CLSI based broth dilution method; assay type: functional; details: read-out: MIC100
Bacteria [5] = assay: Antibacterial activity against Gram negative bacteria assessed as reduction in bacterial growth incubated for 24 hrs by CLSI based broth dilution method; assay type: functional; details: read-out: MIC100
[6] = Therapeutic index, ratio of HC10 for sheep RBC to geometric mean MIC for gram positive bacteria; assay type: toxicity; details: sheep red blood cells, read-out: TI
[7] = Therapeutic index, ratio of HC10 for sheep RBC to geometric mean MIC for gram negative bacteria; assay type: toxicity; details: sheep red blood cells, read-out: TI
RAW264.7 [8] = assay: Antiinflammatory activity against mouse RAW264.7 cells assessed as reduction in LPS-induced nitrite level at 5 uM incubated for 24 hrs by Griess reagent based assay relative to control; assay type: functional
RAW264.7 [9] = assay: Antiinflammatory activity against mouse RAW264.7 cells assessed as reduction in LPS-induced iNOS mRNA expression at 5 uM incubated for 6 hrs by qRT-PCR analysis; assay type: functional, cell-based
RAW264.7 [10] = assay: Antiinflammatory activity against mouse RAW264.7 cells assessed as reduction in LPS-induced TNFalpha mRNA expression at 10 uM incubated for 3 hrs by qRT-PCR analysis; assay type: functional, cell-based
Escherichia coli [11] = assay: Antibacterial activity against Escherichia coli KCTC 1682 assessed as reduction in bacterial growth incubated for 24 hrs in presence of 4.5 mM KCl by CLSI based broth dilution method; assay type: functional; details: read-out: MIC100
Escherichia coli [12] = assay: Antibacterial activity against Escherichia coli KCTC 1682 assessed as reduction in bacterial growth incubated for 24 hrs in presence of 4 uM FeCl3 by CLSI based broth dilution method; assay type: functional; details: read-out: MIC100
Escherichia coli [13] = assay: Antibacterial activity against Escherichia coli KCTC 1682 assessed as reduction in bacterial growth incubated for 24 hrs in presence of 20 % serum by CLSI based broth dilution method; assay type: functional; details: read-out: MIC100
Staphylococcus aureus [14] = assay: Antibacterial activity against Staphylococcus aureus KCTC 1621 assessed as reduction in bacterial growth incubated for 24 hrs in presence of 6 uM NH4Cl by CLSI based broth dilution method; assay type: functional; details: read-out: MIC100
Staphylococcus aureus [15] = assay: Antibacterial activity against Staphylococcus aureus KCTC 1621 assessed as reduction in bacterial growth incubated for 24 hrs in presence of 1 mM MgCl2 by CLSI based broth dilution method; assay type: functional; details: read-out: MIC100
Staphylococcus aureus [16] = assay: Antibacterial activity against Staphylococcus aureus KCTC 1621 assessed as reduction in bacterial growth incubated for 24 hrs in presence of 4 uM FeCl3 by CLSI based broth dilution method; assay type: functional; details: read-out: MIC100
Staphylococcus aureus [17] = assay: Antibacterial activity against methicillin-resistant Staphylococcus aureus CCARM 3090 assessed as reduction in bacterial growth incubated for 24 hrs in presence of chloramphenicol by CLSI based broth dilution method; assay type: functional; details: read-out: MIC100
Staphylococcus aureus [18] = assay: Antibacterial activity against methicillin-resistant Staphylococcus aureus CCARM 3090 assessed as reduction in bacterial growth incubated for 24 hrs in presence of ciprofloxacin by CLSI based broth dilution method; assay type: functional; details: read-out: MIC100
Staphylococcus aureus [19] = assay: Antibacterial activity against methicillin-resistant Staphylococcus aureus CCARM 3090 assessed as reduction in bacterial growth incubated for 24 hrs in presence of oxacillin by CLSI based broth dilution method; assay type: functional; details: read-out: MIC100
Staphylococcus aureus [20] = assay: Antibacterial activity against methicillin-resistant Staphylococcus aureus CCARM 3090 assessed as fractional inhibitory concentration incubated for 24 hrs in presence of chloramphenicol by CLSI based broth dilution method; assay type: functional
Staphylococcus aureus [21] = assay: Antibacterial activity against methicillin-resistant Staphylococcus aureus CCARM 3090 assessed as fractional inhibitory concentration incubated for 24 hrs in presence of ciprofloxacin by CLSI based broth dilution method; assay type: functional
Staphylococcus aureus [22] = assay: Antibacterial activity against methicillin-resistant Staphylococcus aureus CCARM 3090 assessed as fractional inhibitory concentration incubated for 24 hrs in presence of oxacillin by CLSI based broth dilution method; assay type: functional
Staphylococcus aureus [23] = assay: Antibacterial activity against methicillin-resistant Staphylococcus aureus CCARM 3090 assessed as fractional inhibitory concentration index incubated for 24 hrs in presence of ciprofloxacin by CLSI based broth dilution method; assay type: functional
Staphylococcus aureus [24] = assay: Antibacterial activity against methicillin-resistant Staphylococcus aureus CCARM 3090 assessed as fractional inhibitory concentration index incubated for 24 hrs in presence of oxacillin by CLSI based broth dilution method; assay type: functional
[25] = Antibacterial activity against multidrug-resistant Pseudomonas aeruginosa CCARM 2095 assessed as reduction in bacterial growth incubated for 24 hrs in presence of ciprofloxacin by CLSI based broth dilution method; assay type: functional; details: read-out: MIC100
[26] = Antibacterial activity against multidrug-resistant Pseudomonas aeruginosa CCARM 2095 assessed as fractional inhibitory concentration incubated for 24 hrs in presence of ciprofloxacin by CLSI based broth dilution method; assay type: functional
[27] = Antibacterial activity against multidrug-resistant Pseudomonas aeruginosa CCARM 2095 assessed as fractional inhibitory concentration index incubated for 24 hrs in presence of chloramphenicol by CLSI based broth dilution method; assay type: functional
[28] = Antibacterial activity against multidrug-resistant Pseudomonas aeruginosa CCARM 2095 assessed as fractional inhibitory concentration index incubated for 24 hrs in presence of oxacillin by CLSI based broth dilution method; assay type: functional
Escherichia coli [29] = assay: Bacteriostatic activity against Escherichia coli KCTC 1682 assessed as reduction in colony forming unit at 0.5 times MIC measured for 24 hrs by time kill assay; assay type: functional
Cell membrane = assay: Induction of cell membrane permeability in Escherichia coli KCTC 1682 assessed as cytoplasmic membrane […] fluorescent signals at 2 times MIC measured after 1 hr by propidium iodide dye based flow cytometry analysis (reference value: 9.8 %); assay type: subcellular
DNA = assay: Binding affinity to Escherichia coli pBR322 DNA assessed as increase in DNA retardation at 8 uM incubated for 1 hr by agarose gel electrophoresis relative to control; assay type: nucleic-acid assay
Lipopolysaccharide (LPS) [30] = assay: Displacement of BODIPY-TR cadaverine from Escherichia coli O111:B4 LPS measured for 100 sec by spectrofluorometry
Lipopolysaccharide (LPS) [31] = assay: Displacement of BODIPY-TR cadaverine from Escherichia coli O111:B4 LPS at 10 uM measured for 100 sec by spectrofluorometry relative to control

H-LIKKIYRKWKRW-NH2
Activity (Erythrocyte): Non-Toxic
cytotoxicity at 24 h, 20 µM [1]: < 10%
MIC (Staphylococcus aureus [2]): 4 µM
MIC (Staphylococcus aureus [3]): 16 µM
MIC (Enterococcus faecium): 8 µM
MIC (Pseudomonas aeruginosa): 2 µM
MIC (Candida albicans): 4 µM
MIC (Bacteria [4]): 7.1 µM
MIC (Bacteria [5]): 5.6 µM
selectivity ratio [6]: 71.1
selectivity ratio [7]: 91.4
inhibition at 5 µM (RAW264.7 [8]): 51.4%
inhibition (RAW264.7 [9]): Active
inhibition (RAW264.7 [10]): Active
MIC (Escherichia coli [11]): 2 µM
MIC (Escherichia coli [12]): 8 µM
MIC (Escherichia coli [13]): 8 µM
MIC (Staphylococcus aureus [14]): 8 µM
MIC (Staphylococcus aureus [15]): 4 µM
MIC (Staphylococcus aureus [16]): 8 µM
MIC (Staphylococcus aureus [17]): 32 µM
MIC (Staphylococcus aureus [18]): 128 µM
MIC (Staphylococcus aureus [19]): 64 µM
FIC (Staphylococcus aureus [20]): 0.25
FIC (Staphylococcus aureus [21]): 0.25
FIC (Staphylococcus aureus [22]): 0.125
fractional inhibitory concentration index (FICI) (Staphylococcus aureus [23]): 0.5
fractional inhibitory concentration index (FICI) (Staphylococcus aureus [24]): 0.375
MIC [25]: 64 µM
FIC [26]: 0.125
fractional inhibitory concentration index (FICI) [27]: 0.313
fractional inhibitory concentration index (FICI) [28]: 0.375
Activity (Escherichia coli [29]): 3 log10CFU/ml
Activity (Cell membrane): 9.53%
Activity (DNA): 100%

H-LWKKIYRKWKRW-NH2
Activity (Erythrocyte): Non-Toxic
cytotoxicity at 24 h, 20 µM [1]: < 10%
MIC (Staphylococcus aureus [2]): 2 µM
MIC (Staphylococcus aureus [3]): 16 µM
MIC (Enterococcus faecium): 8 µM
MIC (Pseudomonas aeruginosa): 2 µM
MIC (Candida albicans): 4 µM
MIC (Bacteria [4]): 6.8 µM
MIC (Bacteria [5]): 4 µM
selectivity ratio [6]: 753
selectivity ratio [7]: 128
inhibition at 5 µM (RAW264.7 [8]): 91.6%
inhibition (RAW264.7 [9]): Active
inhibition (RAW264.7 [10]): Active
MIC (Escherichia coli [11]): 4 µM
MIC (Escherichia coli [12]): 8 µM
MIC (Escherichia coli [13]): 8 µM
MIC (Staphylococcus aureus [14]): 2 µM
MIC (Staphylococcus aureus [15]): 4 µM
MIC (Staphylococcus aureus [16]): 8 µM
MIC (Staphylococcus aureus [17]): 32 µM
MIC (Staphylococcus aureus [18]): 64 µM
MIC (Staphylococcus aureus [19]): 64 µM
FIC (Staphylococcus aureus [20]): 0.25
FIC (Staphylococcus aureus [21]): 0.125
FIC (Staphylococcus aureus [22]): 0.125
fractional inhibitory concentration index (FICI) (Staphylococcus aureus [23]): 0.375
fractional inhibitory concentration index (FICI) (Staphylococcus aureus [24]): 0.375
MIC [25]: 64 µM
FIC [26]: 0.125
fractional inhibitory concentration index (FICI) [27]: 0.375
fractional inhibitory concentration index (FICI) [28]: 0.375
Activity (Escherichia coli [29]): 3 log10CFU/ml
Activity (Cell membrane): 6.31%
Activity (DNA): 100%
Activity (Lipopolysaccharide (LPS) [30]): Dose-dependent effect
Activity (Lipopolysaccharide (LPS) [31]): 75%
